Assay results published in patent US9271977B2, “Sanglifehrin derivatives and methods for their production” (NeuroVive Pharmaceutical AB, priority 2010, dated 2016).
Read-outs that look alike come from different tables or passages of the source.

What was measured:
[1] = test system: HCV genotype 1b I389Iuc-ubi-neo/NS3-3′/5.1 replicon in Huh5.2 cells; experiment: microbe, parasite or virus in culture; type: cell-based, Hepatitis C Virus; conditions: for Selectivity index (CC50/EC50): Huh5.2 replicon assay
Method: (§1) Antiviral efficacy against genotype 1 HCV may be tested as follows: One day before addition of the test article, Huh5.2 cells, containing the HCV genotype 1b I389Iuc-ubi-neo/NS3-3′/5.1 replicon (Vrolijk et al., 2003) and subcultured in cell growth medium [DMEM (Cat No. 41965039) supplemented with 10% FCS, 1% non-essential amino acids (11140035), 1% penicillin/streptomycin (15140148) and 2% Geneticin (10131027); Invitrogen] at a ratio of 1.3-1.4 and grown for 3-4 days in […] tissue culture flasks (Techno Plastic Products), were harvested and seeded in assay medium (DMEM, 10% FCS, 1% non-essential amino acids, 1% penicillin/streptomycin) at a density of 6500 cells/well (100 uL/well) in 96-well tissue culture microtitre plates (Falcon, Beckton Dickinson for evaluation of the anti-metabolic effect and CulturPlate, Perkin Elmer for evaluation of antiviral effect). The microtitre plates are incubated overnight (37° C., 5% CO2, 95-99% relative humidity), yielding a non-confluent cell monolayer.
(§2) Dilution series are prepared; each dilution series is performed in at least duplicate. Following assay setup, the microtitre plates are incubated for 72 hours (37° C., 5% CO2, 95-99% relative humidity).
For the evaluation of antiviral effects, assay medium is aspirated and the cell monolayers are washed with PBS. The wash buffer is aspirated, 25 uL of Glo Lysis Buffer (Cat. No. E2661, Promega) is added after which lysis is allowed to proceed for 5 min at room temperature. Subsequently, 50 uL of Luciferase Assay System (Cat. No. E1501, Promega) is added and the luciferase luminescence signal is quantified immediately (1000 ms integration time/well, Safire^2, Tecan). Relative luminescence units are converted to percentage of untreated controls.
(§3) The selectivity index (SI), indicative of the therapeutic window of the compound, is calculated as CC50/EC50.
(§4) Compounds were analysed in the replicon assay using Huh5.2 cells as described in the General Methods.

Huh5.2 cells = experiment: Anti-metabolic effect (MTS) in the replicon cell line; conditions: Huh5.2 cells, 72 hours, MTS metabolic activity
Method: as §1, §2
(§5) For the evaluation of anti-metabolic effects, the assay medium is aspirated, replaced with 75 uL of a 5% MTS (Promega) solution in phenol red-free medium and incubated for 1.5 hours (37° C., 5% CO2, 95-99% relative humidity). Absorbance is measured at a wavelength of 498 nm (Safire^2, Tecan) and optical densities (OD values) are converted to percentage of untreated controls.
as §3, §4

[2] = Microsome stability assay, human liver microsomes; type: in vitro ADME; conditions: for stability in human liver microsomes compared to sanglifehrin A (in words): compared to sanglifehrin A (5)
Method: (§6) Mouse or human liver microsomes were diluted with buffer C (0.1 M Potassium Phosphate buffer, 1.0 mM EDTA, pH 7.4) to a concentration of 2.5 mg/mL. Microsomal stability samples were then prepared by adding 50 uL of 5 uM compound spiking solution (0.5 uL 10 mM DMSO stock solution in 9.5 uL ACN, added to 990 uL Buffer C) to 50 μL of microsomal solution (2.5 mg/mL), 110 uL Buffer C and mixed well. All samples were pre-incubated for approximately 15 minutes at 37° C. Following this, the reaction was initiated by adding 40 uL of the NADPH solution (12.5 mM) with gentle mixing. Aliquots (40 uL) were removed at 0, 15, 30, 45 and 60 minutes and quenched with ACN containing internal standard (120 uL). Protein was removed by centrifugation (4000 rpm, 15 min) and the sample plate analysed for compound concentration by LC-MS/MS. Half-lives were then calculated by standard methods, comparing the concentration of analyte wth the amount originally present.
(§7) Stability of the compounds in human and mouse liver microsomes was analysed as described in the General Methods. Sanglifehrin A, 5 was included as a comparison.

[3] = Microsome stability assay, mouse liver microsomes; type: in vitro ADME; conditions: for stability in mouse liver microsomes compared to sanglifehrin A (in words): compared to sanglifehrin A (5)
Method: as §6, §7

cyclophilin A (CyPA) = cyclophilin A (CyPA) (Homo sapiens, UniProt P62937); conditions: relative to CsA; cited from earlier work
cyclophilin A (CyPA), sequence (P62937 whole entry): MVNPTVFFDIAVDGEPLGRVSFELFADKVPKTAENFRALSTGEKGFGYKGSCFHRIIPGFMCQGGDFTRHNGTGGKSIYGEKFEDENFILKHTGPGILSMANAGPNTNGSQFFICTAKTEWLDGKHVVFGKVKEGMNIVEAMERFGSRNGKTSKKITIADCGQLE

in vitro = conditions: human
Method: as §1, §2, §5, §3, §4

HBV = conditions: cited from earlier work
HIV-1 = conditions: clinical, cited from earlier work
[4] = human, in vivo; cited from earlier work
[5] = Huh5.2 cells, HCV genotype 1b replicon, 72 hours, luciferase signal, read-out: EC50
[6] = human liver microsomes, NADPH, 37° C.
[7] = mouse liver microsomes, NADPH, 37° C.
[8] = Hepatitis C virus, Huh-5-2, Huh5.2 cells, HCV genotype 1b replicon, 72 hours, luciferase signal, read-out: EC50
[9] = pH 7.4, human liver microsomes, NADPH, 37° C.
[10] = pH 7.4, mouse liver microsomes, NADPH, 37° C.

CC[C@H]1C[C@H](C)[C@@]2(NC1=O)O[C@@H](C[C@H](O)[C@@H](C)CC/C=C/C=C(\C)[C@@H]1C/C=C/C=C/[C@H](O)[C@H](C)[C@@H](O)[C@@H](CCC(C)=O)C(=O)N[C@@H](C(C)C)C(=O)N[C@@H](Cc3cccc(O)c3)C(=O)N3CCC[C@H](N3)C(=O)O1)[C@H](C)[C@H](O)[C@@H]2C [Sanglifehrin A, 5, Sanglifehrin A, reference compound]
potency in the Huh5.2 replicon assay (in words) [1]: less potent
EC50 [1, 5]: 0.318 µM
CC50 (Huh5.2 cells): 9.1 µM
Human liver microsome half life [2, 6]: 6.38 min
Mouse liver microsome half life [3, 7]: 6.15 min
higher affinity for CyPA compared to CsA (cyclophilin A (CyPA)): approximately 20 fold

CC[C@H]1C[C@H](C)[C@@]2(NC1=O)O[C@@H](C[C@H](O)[C@@H](C)CC/C=C/C=C(\C)[C@@H]1C/C=C/C=C/[C@H](O)[C@H](C)[C@@H](O)[C@@H](CCC(C)=O)C(=O)N[C@@H](C(C)C)C(=O)N[C@@H](Cc3ccccc3)C(=O)N3CCCC(N3)C(=O)O1)[C@H](C)[C@H](O)[C@@H]2C (stereo partly shown) [Compound 18, 61-Deshydroxy Sanglifehrin A]
EC50 [1, 8]: 3.4 µM
CC50 (in vitro): 11.7 µM
stability in human liver microsomes compared to sanglifehrin A (in words) [2]: increased stability
half-life at 1 µM [2, 9]: 7.64 min
half-life at 1 µM [3, 10]: 3.46 min

58-des(3-hydroxyphenyl)-58-(3-hydroxy(2-pyridyl)-sanglifehrin A [Compound 19]
EC50 [1, 5]: 24.3 µM
CC50 (Huh5.2 cells): 48.1 µM
stability in human liver microsomes compared to sanglifehrin A (in words) [2]: increased stability
Human liver microsome half life [2, 6]: 10.37 min
Mouse liver microsome half life [3, 7]: 4.71 min

C/C=C/C[C@@H](C)[C@@H](O)[C@H]1C(=O)N[C@@H](CC)C(=O)N(C)[C@H](C)C(=O)N(CC)[C@@H](C(C)C)C(=O)N[C@@H](C(C)C)C(=O)N(C)[C@@H](CC(C)C)C(=O)N[C@@H](C)C(=O)N[C@H](C)C(=O)N(C)[C@@H](CC(C)C)C(=O)N(C)[C@@H](CC(C)C)C(=O)N(C)[C@@H](C(C)C)C(=O)N1C [DEBIO-025]
IC50 (HBV; Ptak et al. 2008, read-out: IC50 against HBV): 4.1 µM
reduction of HIV-1 RNA levels (in words) (HIV-1; 27 of the treated patients (Steyn et al., 2006)): no reduction
reduction of HIV-1 RNA levels (HIV-1; in nine patients (Steyn et al., 2006)): ≥ 0.5 log 10 copies/mL
reduction of HIV-1 RNA levels (HIV-1; in two patients (Steyn et al., 2006)): > 1 log 10 copies/mL
discontinuation of treatment caused by hyperbilirubinemia [4]: 4 out of 16

CC[C@H]1C[C@H](C)[C@@]2(NC1=O)O[C@@H](C[C@H](O)[C@@H](C)CC/C=C/C=C(\C)[C@@H]1C/C=C/C=C/[C@H](O)[C@H](C)[C@@H](O)[C@@H](CCC(C)=O)C(=O)N[C@@H](C(C)C)C(=O)N[C@@H](Cc3ccc(C)c(O)c3)C(=O)N3CCCC(N3)C(=O)O1)[C@H](C)[C@H](O)[C@@H]2C (stereo partly shown) [Compound 17, 62-Methyl Sanglifehrin A]
potency in the Huh5.2 replicon assay (in words) [1]: very potent
EC50 [1, 8]: 0.083 µM
Selectivity index (CC50/EC50) [1]: 143
CC50 (in vitro): 11.6 µM
stability in human liver microsomes compared to sanglifehrin A (in words) [2]: increased stability
half-life [2, 9]: 9.5 min
stability in mouse liver microsomes compared to sanglifehrin A (in words) [3]: more stable
half-life [3, 10]: 9.67 min

C/C=C/CC(C)C(O)C1C(=O)NC(CC)C(=O)N(C)CC(=O)N(C)C(CC(C)C)C(=O)NC(C(C)C)C(=O)N(C)C(CC(C)C)C(=O)NC(C)C(=O)NC(C)C(=O)N(C)C(CC(C)C)C(=O)N(C)C(CC(C)C)C(=O)N(C)C(C(C)C)C(=O)N1C (stereo not shown) [Cyclosporine A, 1, Cyclosporine A, reference compound]
potency in the Huh5.2 replicon assay (in words) [1]: less potent
EC50 ([1]; Hepatitis C virus, Huh-5-2, 72 h): 0.2 µM
IC50 against HBV (HBV; Xie et al., 2007): > 1.3 µg/mL

CC(=O)CC[C@H]1C(=O)N[C@@H](C(C)C)C(=O)N[C@@H](Cc2cccc(O)c2)C(=O)N2CCC[C@H](N2)C(=O)O[C@H](/C(C)=C/CO)C/C=C/C=C/[C@H](O)[C@H](C)[C@H]1O [Hydroxymacrocycle, 6, reference compound]
EC50 [1, 8]: 8.4 µM
Selectivity index (CC50/EC50) [1]: 9.9
CC50 (in vitro): 83.6 µM

CC[C@H]1C[C@H](C)[C@@]2(NC1=O)O[C@@H](C[C@H](O)[C@@H](C)CC/C=C/C=C(\C)[C@@H]1C/C=C/C=C/[C@H](O)[C@H](C)[C@@H](O)[C@@H](CCC(C)=O)C(=O)N[C@@H](C(C)C)C(=O)N[C@@H](Cc3ccc(F)c(O)c3)C(=O)N3CCCC(N3)C(=O)O1)[C@H](C)[C@H](O)[C@@H]2C (stereo partly shown) [Compound 16, 62-Fluoro Sanglifehrin A]
potency in the Huh5.2 replicon assay (in words) [1]: very potent
EC50 [1, 8]: 0.89 µM
Selectivity index (CC50/EC50) [1]: 32
CC50 (in vitro): 29.7 µM
stability in human liver microsomes compared to sanglifehrin A (in words) [2]: increased stability
half-life [2, 9]: 6.61 min
half-life [3, 10]: 5.48 min

CC[C@H]1C[C@H](C)[C@@]2(NC1=O)O[C@@H](C[C@H](O)[C@@H](C)CC/C=C/C=C(\C)[C@@H]1C/C=C/C=C/[C@H](O)[C@H](C)[C@@H](O)[C@@H](CCC(C)=O)C(=O)N[C@@H](C(C)C)C(=O)N[C@@H](Cc3cc(O)c(F)c(F)c3)C(=O)N3CCCC(N3)C(=O)O1)[C@H](C)[C@H](O)[C@@H]2C (stereo partly shown) [Compound 15, 62,63-Fluoro Sanglifehrin A]
potency in the Huh5.2 replicon assay (in words) [1]: very potent
EC50 [1, 8]: 0.195 µM
Selectivity index (CC50/EC50) [1]: 88
CC50 (in vitro): 16.6 µM
stability in human liver microsomes compared to sanglifehrin A (in words) [2]: increased stability
half-life [2, 9]: 10.8 min
stability in mouse liver microsomes compared to sanglifehrin A (in words) [3]: more stable
half-life [3, 10]: 9.22 min

CC[C@H]1C[C@H](C)[C@@]2(NC1=O)O[C@@H](C[C@H](O)[C@@H](C)CC/C=C/C=C(\C)[C@@H]1C/C=C/C=C/[C@H](O)[C@H](C)[C@@H](O)[C@@H](CCC(C)=O)C(=O)N[C@@H](C(C)C)C(=O)N[C@@H](Cc3cc(O)cc(F)c3)C(=O)N3CCCC(N3)C(=O)O1)[C@H](C)[C@H](O)[C@@H]2C (stereo partly shown) [Compound 14, 63-Fluoro Sanglifehrin a]
potency in the Huh5.2 replicon assay (in words) [1]: very potent
EC50 [1, 8]: 0.135 µM
Selectivity index (CC50/EC50) [1]: 121
CC50 (in vitro): 12.8 µM
stability in human liver microsomes compared to sanglifehrin A (in words) [2]: increased stability
half-life [2, 9]: 9.32 min
stability in mouse liver microsomes compared to sanglifehrin A (in words) [3]: more stable
half-life [3, 10]: 9.78 min
